Series [1] concerns vaccinia virus (strain Copenhagen). The experiment in a line: microbe, parasite or virus in culture. The conditions noted are these: Orthopoxvirus vaccinia, Vero, 96 h.
In series [2] the test system is Marburg pseudovirus (GP MARV).
For series [3], the system named is Marburg pseudovirus (GP MARV). The experiment in a line: microbe, parasite or virus in culture. The conditions noted are these: 24 h.
In series [4] the test system is vaccinia virus (strain Copenhagen).
Series [5] is described as follows: in vitro. The conditions noted are these: African green monkey.
Series [6] can be described thus: in vitro. The conditions noted are these: human.

Like-named read-outs stand apart in the source and are kept apart here.

With `CC1(C)[C@@H]2CC[C@@]1(C)/C(=N/NC(=S)Nc1ccccc1)C2` [Compound 2a, (E)-N-phenyl-2-((1R,4R)-1,7,7-trimethylbicyclo[2.2.1]heptan-2-ylidene)hydrazinecarbothioamide], the IC50 is 6.7 ± 0.9 µM in series [1], 398 ± 33.2 µM in series [3] and “lower micromolar range” in series [4]. In addition, the CC50 entry in the series with Vero cells is “quite toxic”; in the series “in vitro [5]”, 24 ± 3.4 µM; in “in vitro [6]” it was 700 ± 43.1 µM. Moreover, the “SI (CC50/IC50)” value in series [2] came out at 2; in series [4], 4.

Take `CC12CCC(CC1=NN=C1SCC(=O)N1c1ccccc1)C2(C)C` [Compound 3a, ((Z)-3-phenyl-2-((E)-((1R,4R)-1,7,7-trimethylbicyclo[2.2.1]heptan-2-ylidene)hydrazono)thiazolidin-4-one]: the CC50 result with HEK293FT cells was “least toxicity”; in the series “in vitro [5]” it was 290 ± 39.1 µM; in the series “in vitro [6]”, 1260 ± 52.7 µM. For the same molecule, the “SI (CC50/IC50)” value in series [2] was 5. The concentration for half-maximal inhibition (IC50) in series [3] was 237 ± 5.9 µM.

As for `C=CCN1C(=O)C(C)(C)S/C1=N/N=C1/C[C@H]2CC[C@]1(C)C2(C)C` [Compound 4b, (Z)-3-allyl-5,5-dimethyl-2-((E)-((1R,4R)-1,7,7-trimethylbicyclo[2.2.1]heptan-2-ylidene)hydrazono)thiazolidin-4-one], the CC50 result was “least toxicity” with HEK293FT cells and 959.5 ± 6.8 µM in “in vitro [6]”. In series [2], the “SI (CC50/IC50)” value was 4. The molecule also returned an IC50 in series [3] of 255 ± 45 µM.

For the molecule `CN1C(=O)C(C)(C)S/C1=N/N=C1/C[C@H]2CC[C@]1(C)C2(C)C` [Compound 4d, (Z)-3,5,5-trimethyl-2-((E)-((1R,4R)-1,7,7-trimethylbicyclo[2.2.1]heptan-2-ylidene)hydrazono)thiazolidin-4-one], the figures for the IC50 in series [1], in series [3] and in series [4] were 12.7 ± 1.4 µM, 39 ± 3.3 µM and “highest activity”, respectively. The values for the CC50 entry in the series with Vero cells, in the series “in vitro [5]” and in “in vitro [6]” were “low toxicity”, 310 ± 38.7 µM and 514 ± 34.1 µM, respectively. For the same molecule, the “SI (CC50/IC50)” value worked out at 13 in series [2] and 24 in series [4].

In the case of `CC1(C)[C@@H]2CC[C@@]1(C)/C(=N/N=c1/scc(-c3ccc(Cl)cc3)n1-c1ccccc1)C2` [Compound 5a, (E)-4-(4-chlorophenyl)-3-phenyl-2-((E)-((1R,4R)-1,7,7-trimethylbicyclo[2.2.1]heptan-2-ylidene)hydrazono)-2,3-dihydrothiazole], the values for the CC50 entry in the series on HEK293FT cells, in “in vitro [5]” and in “in vitro [6]” were “least toxicity”, 229 ± 24.7 µM and 872 ± 52.8 µM, respectively. Also, the “SI (CC50/IC50)” value in series [2] was 8. Also, in series [3], the half-maximal inhibitory concentration (IC50) turned out to be 103 ± 6.9 µM.

A word on the IC50: it is the concentration that gives 50% inhibition.

Values taken from publication PMC9331314, “Synthesis and Antiviral Properties of Camphor-Derived Iminothiazolidine-4-Ones and 2,3-Dihydrothiazoles” (Molecules, 2022).
